Experimental findings from patent publication US20240398805A1, “QUINAZOLINE DERIVED COMPOUNDS AS EGFR INHIBITORS AND THEIR USES THEREOF” (ACCUTAR BIOTECHNOLOGY INC., priority 2021, published 2024) are described below.

What is called GI50 is the concentration that inhibits growth by half.

What all share (assay type): cell-based
Test [1] concerns HCC827-SVD cells (human EGFR exon 20 insertion mutant D770_N771 insSVD). The test is described as follows: Cell growth inhibition (CellTiter-Glo, 3 days) in HCC827-SVD. As to conditions: 72 h, 3 days after administration. In outline: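 HCC827 cells carrying lentiviral codon-optimized EGFR D770_N771 insSVD, with endogenous EGFR knocked out by CRISPR (single clone), seeded at 5000 cells/well in RPMI with 10% FBS. Viability read by CellTiter-Glo luminescence.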

The next test has as its system A431 cells. The test is described as follows: Cell growth inhibition (CellTiter-Glo, 3 days) in A431. As to conditions: Homo sapiens, A-431, 72 h, 3 days after administration. In a few lines: (§1)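 HCC827 cells in RPMI/10% FBS and A431 cells in DMEM/10% FBS were seeded at 5000 cells/well and left overnight. Compound was then added over a concentration range for 3 days of incubation, and viability was read by CellTiter-Glo luminescence.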
A general note: In ATP-based viability assays light output follows the ATP content of the culture.

For another test, the system named is HCC827 cells. Briefly: Cell growth inhibition (CellTiter-Glo, 3 days) in HCC827. As to conditions: Homo sapiens, 72 h, 3 days after administration. In a few lines:
as §1

Test [2] has as its system HCC827-ASV cells (human EGFR exon 20 insertion mutant A769_D770insASV). Briefly: Cell growth inhibition (CellTiter-Glo, 3 days) in HCC827-ASV. As to conditions: 72 h, 3 days after administration. In a few lines: (§2)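 HCC827 cells lentivirally transduced with codon-optimized ASV or YVMA insertion mutants were seeded at 5000 cells/well in RPMI with 10% FBS and incubated overnight. Compound was added at various concentrations from a 10× stock in medium, with 3 days' incubation. Viability read by CellTiter-Glo luminescence.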

In test [3] the test system is HCC827-YVMA cells (human ERBB2 exon20 insertion mutant A775_G776ins YVMA). Briefly: Cell growth inhibition (CellTiter-Glo, 3 days) in HCC827-YVMA. As to conditions: 72 h, 3 days after administration. In a few lines:
as §2

Bounds are passed on as bounds.

As for `C=CC(=O)N1CCC(Nc2cc3c(Nc4ccc(Oc5ccc(N6C[C@@H](C)O[C@@H](C)C6)cn5)cc4F)ncnc3cc2OC)CC1` [Example 111, 1-(4-((4-((4-((5-((2R,6S)-2,6-dimethylmorpholino)pyridin-2-yl)oxy)-2-fluorophenyl)amino)-7-methoxyquinazolin-6-yl)amino)piperidin-1-yl)prop-2-en-1-one], the GI50 in test [1] fell in the range of 300 to 600 nM; with A431 cells it was 600 to 1000 nM; with HCC827 cells, 30 to 60 nM; in test [2] it was 300 to 600 nM; in test [3], 300 to 600 nM.

For the compound `C=CC(=O)N1CCC(Nc2cc3c(Nc4ccc(Oc5ccnc(N6CCS(=O)(=O)CC6)c5)cc4F)ncnc3cc2OC)CC1` [Example 112, 1-(4-((4-((4-((2-(1,1-dioxidothiomorpholino)pyridin-4-yl)oxy)-2-fluorophenyl)amino)-7-methoxyquinazolin-6-yl)amino)piperidin-1-yl)prop-2-en-1-one], the GI50 in test [1] was 100 to 300 nM; in the test on A431 cells it was not below 1000 nM; with HCC827 cells it was not below 1000 nM; in test [2] it was 300 to 600 nM; in test [3], 600 to 1000 nM.

Turning to `C=CC(=O)N1CCC(Nc2cc3c(Nc4ccc(Oc5ccnc(N6CCN(C)CC6)c5)cc4F)ncnc3cc2OC)CC1` [Example 113, 1-(4-((4-((2-fluoro-4-((2-(4-methylpiperazin-1-yl)pyridin-4-yl)oxy)phenyl)amino)-7-methoxyquinazolin-6-yl)amino)piperidin-1-yl)prop-2-en-1-one], the GI50 is less than 30 nM in test [1]; 600 to 1000 nM in the test with A431 cells; 30 to 60 nM with HCC827 cells; less than 30 nM in test [2]; less than 30 nM in test [3].

For the compound `C=CC(=O)N1CCC(Nc2cc3c(Nc4ccc(Oc5ccnc(N6CC[C@@H](OC)C6)c5)cc4F)ncnc3cc2OC)CC1` [Example 114, (R)-1-(4-((4-((2-fluoro-4-((2-(3-methoxypyrrolidin-1-yl)pyridin-4-yl)oxy)phenyl)amino)-7-methoxyquinazolin-6-yl)amino)piperidin-1-yl)prop-2-en-1-one], the GI50 was 100 to 300 nM in test [1]; not below 1000 nM in the test on A431 cells; 300 to 600 nM in the test on HCC827 cells; 60 to 100 nM in test [2]; 100 to 300 nM in test [3].

Regarding `C=CC(=O)N1CCC(Nc2cc3c(Nc4ccc(Oc5ccnc(N6CC[C@H](OC)C6)c5)cc4F)ncnc3cc2OC)CC1` [Example 115, (S)-1-(4-((4-((2-fluoro-4-((2-(3-methoxypyrrolidin-1-yl)pyridin-4-yl)oxy)phenyl)amino)-7-methoxyquinazolin-6-yl)amino)piperidin-1-yl)prop-2-en-1-one], the GI50 in test [1] is 60 to 100 nM; with A431 cells, 300 to 600 nM; with HCC827 cells, 300 to 600 nM; in test [2], 100 to 300 nM; in test [3], 100 to 300 nM.

As to `C=CC(=O)N1CCC(Nc2cc3c(Nc4ccc(Oc5ccnc(N(C)CCOC)c5)cc4F)ncnc3cc2OC)CC1` [Example 116, 1-(4-((4-((2-fluoro-4-((2-((2-methoxyethyl)(methyl)amino)pyridin-4-yl)oxy)phenyl)amino)-7-methoxyquinazolin-6-yl)amino)piperidin-1-yl)prop-2-en-1-one], the GI50 fell in the range of 100 to 300 nM in test [1]; 600 to 1000 nM in the test on A431 cells; 300 to 600 nM in the test on HCC827 cells; 100 to 300 nM in test [2]; 60 to 100 nM in test [3].

As to `C=CC(=O)N1CCC(Nc2cc3c(Nc4ccc(Oc5ccnc(N(CCOC)CCOC)c5)cc4F)ncnc3cc2OC)CC1` [Example 117, 1-(4-((4-((4-((2-(bis(2-methoxyethyl)amino)pyridin-4-yl)oxy)-2-fluorophenyl)amino)-7-methoxyquinazolin-6-yl)amino)piperidin-1-yl)prop-2-en-1-one], the GI50 in test [1] was 100 to 300 nM; in the test on A431 cells it was not below 1000 nM; with HCC827 cells, 300 to 600 nM; in test [2], 100 to 300 nM; in test [3] it was 60 to 100 nM.

Turning to `C=CC(=O)N1CCC(Nc2cc3c(Nc4ccc(Oc5ccnc(N6CC7(COC7)C6)c5)cc4F)ncnc3cc2OC)CC1` [Example 118, 1-(4-((4-((4-((2-(2-oxa-6-azaspiro[3.3]heptan-6-yl)pyridin-4-yl)oxy)-2-fluorophenyl)amino)-7-methoxyquinazolin-6-yl)amino)piperidin-1-yl)prop-2-en-1-one], the GI50 in test [1] is 30 to 60 nM; with A431 cells, not below 1000 nM; with HCC827 cells, 300 to 600 nM; in test [2], 30 to 60 nM; in test [3], 30 to 60 nM.

As to `C=CC(=O)N1CCC(Nc2cc3c(Nc4ccc(Oc5ccnc(N6CC(OC)C6)c5)cc4F)ncnc3cc2OC)CC1` [Example 119, 1-(4-((4-((2-fluoro-4-((2-(3-methoxyazetidin-1-yl)pyridin-4-yl)oxy)phenyl)amino)-7-methoxyquinazolin-6-yl)amino)piperidin-1-yl)prop-2-en-1-one], the GI50 in test [1] was in the range of 100 to 300 nM; with A431 cells, 100 to 300 nM; with HCC827 cells, 300 to 600 nM; in test [2] it was 60 to 100 nM; in test [3], 100 to 300 nM.

Take `C=CC(=O)N1CCC(Nc2cc3c(Nc4ccc(Oc5ccnc(N6CCN(C(C)=O)CC6)c5)cc4F)ncnc3cc2OC)CC1` [Example 120, 1-(4-((4-((4-((2-(4-acetylpiperazin-1-yl)pyridin-4-yl)oxy)-2-fluorophenyl)amino)-7-methoxyquinazolin-6-yl)amino)piperidin-1-yl)prop-2-en-1-one]: the GI50 was 100 to 300 nM in test [1]; not below 1000 nM with A431 cells; not below 1000 nM in the test on HCC827 cells; 100 to 300 nM in test [2]; 600 to 1000 nM in test [3].

Take `C=CC(=O)N1CCC(Nc2cc3c(Nc4ccc(Oc5ccnc(N6CCC(O)CC6)c5)cc4F)ncnc3cc2OC)CC1` [Example 121, 1-(4-((4-((2-fluoro-4-((2-(4-hydroxypiperidin-1-yl)pyridin-4-yl)oxy)phenyl)amino)-7-methoxyquinazolin-6-yl)amino)piperidin-1-yl)prop-2-en-1-one]: the GI50 in test [1] is less than 30 nM; in the test with A431 cells, not below 1000 nM; in the test with HCC827 cells it was 300 to 600 nM; in test [2] it was less than 30 nM; in test [3], less than 30 nM.

In the case of `C=CC(=O)N1CCC(Nc2cc3c(Nc4ccc(Oc5ccnc(N6CCC(N(C)C)CC6)c5)cc4F)ncnc3cc2OC)CC1` [Example 122, 1-(4-((4-((4-((2-(4-(dimethylamino)piperidin-1-yl)pyridin-4-yl)oxy)-2-fluorophenyl)amino)-7-methoxyquinazolin-6-yl)amino)piperidin-1-yl)prop-2-en-1-one], the GI50 in test [1] was 600 to 1000 nM; with A431 cells it was not below 1000 nM; with HCC827 cells, 600 to 1000 nM; in test [2] it was 600 to 1000 nM; in test [3] it was not below 1000 nM.

As for `C=CC(=O)N1CCC(Nc2cc3c(Nc4ccc(Oc5ccnc(N6CCNCC6)c5)cc4F)ncnc3cc2OC)CC1` [Example 123, 1-(4-((4-((2-fluoro-4-((2-(piperazin-1-yl)pyridin-4-yl)oxy)phenyl)amino)-7-methoxyquinazolin-6-yl)amino)piperidin-1-yl)prop-2-en-1-one], the GI50 in test [1] was 300 to 600 nM; in the test on A431 cells, not below 1000 nM; with HCC827 cells, not below 1000 nM; in test [2], 300 to 600 nM; in test [3], 600 to 1000 nM.

For the compound `C=CC(=O)N1CCC(Nc2cc3c(Nc4ccc(Oc5ccnc(N6CCO[C@@H](CO)C6)c5)cc4F)ncnc3cc2OC)CC1` [Example 124, (R)-1-(4-((4-((2-fluoro-4-((2-(2-(hydroxymethyl)morpholino)pyridin-4-yl)oxy)phenyl)amino)-7-methoxyquinazolin-6-yl)amino)piperidin-1-yl)prop-2-en-1-one], the 50% growth inhibitory concentration (GI50) in test [1] was 30 to 60 nM; in the test on A431 cells, not below 1000 nM; with HCC827 cells, 600 to 1000 nM; in test [2], 30 to 60 nM; in test [3] it was 60 to 100 nM.

Turning to `C=CC(=O)N1CCC(Nc2cc3c(Nc4ccc(Oc5ccnc(N6CCO[C@H](CO)C6)c5)cc4F)ncnc3cc2OC)CC1` [Example 125, (S)-1-(4-((4-((2-fluoro-4-((2-(2-(hydroxymethyl)morpholino)pyridin-4-yl)oxy)phenyl)amino)-7-methoxyquinazolin-6-yl)amino)piperidin-1-yl)prop-2-en-1-one], the GI50 was 300 to 600 nM in test [1]; not below 1000 nM in the test on A431 cells; not below 1000 nM in the test on HCC827 cells; 100 to 300 nM in test [2]; 100 to 300 nM in test [3].

Take `C=CC(=O)N1CCC(Nc2cc3c(Nc4ccc(Oc5ccnc(N6CCOC[C@H]6CO)c5)cc4F)ncnc3cc2OC)CC1` [Example 126, (R)-1-(4-((4-((2-fluoro-4-((2-(3-(hydroxymethyl)morpholino)pyridin-4-yl)oxy)phenyl)amino)-7-methoxyquinazolin-6-yl)amino)piperidin-1-yl)prop-2-en-1-one]: the GI50 is 100 to 300 nM in test [1]; not below 1000 nM with A431 cells; not below 1000 nM with HCC827 cells; 60 to 100 nM in test [2]; 100 to 300 nM in test [3].
